Experimental data: PubChem BioAssay (NCI)
Where “and” joins values, the source holds several entries; their conditions need not be identical. Equal entries are not always repeated.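 Values below derive from 48-hour exposures of cells grown in 96-well plates, with endpoints linearly interpolated between the two concentrations bracketing the appropriate inhibition level. GI50 is the concentration that inhibits growth by half. TGI: total growth inhibition.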

Tests used:
Test in all cases: NCI tumour cell line growth inhibition, 48 h
MCF7 breast = test system: MCF7 breast
OVCAR-3 ovarian = test system: OVCAR-3 ovarian
M14 melanoma = test system: M14 melanoma
SN12K1 renal = test system: SN12K1 renal
UO-31 renal = test system: UO-31 renal
SR leukemia = test system: SR leukemia
HCT-116 colon = test system: HCT-116 colon
SK-MEL-28 melanoma = test system: SK-MEL-28 melanoma
OVCAR-4 ovarian = test system: OVCAR-4 ovarian
SF-539 CNS = test system: SF-539 CNS
NCI-H226 lung = test system: NCI-H226 lung
DMS 273 small cell lung = test system: DMS 273 small cell lung
RXF 393 renal = test system: RXF 393 renal
CCRF-CEM leukemia = test system: CCRF-CEM leukemia
HL-60(TB) leukemia = test system: HL-60(TB) leukemia
LOX IMVI melanoma = test system: LOX IMVI melanoma
DMS 114 small cell lung = test system: DMS 114 small cell lung
NCI-H522 lung = test system: NCI-H522 lung
IGROV1 ovarian = test system: IGROV1 ovarian
EKVX NSCLC = test system: EKVX NSCLC
OVCAR-8 ovarian = test system: OVCAR-8 ovarian
HCC-2998 colon = test system: HCC-2998 colon
A498 renal = test system: A498 renal
UACC-257 melanoma = test system: UACC-257 melanoma
RPMI-8226 leukemia = test system: RPMI-8226 leukemia
HOP-18 NSCLC = test system: HOP-18 NSCLC
TK-10 renal = test system: TK-10 renal
SK-OV-3 ovarian = test system: SK-OV-3 ovarian
786-0 renal = test system: 786-0 renal
SN12C renal = test system: SN12C renal
U251 CNS = test system: U251 CNS
NCI/ADR-RES ovarian = test system: NCI/ADR-RES ovarian
HT29 colon = test system: HT29 colon
NCI-H460 lung = test system: NCI-H460 lung
KM12 colon = test system: KM12 colon
XF 498 CNS = test system: XF 498 CNS
SW-620 colon = test system: SW-620 colon
SK-MEL-5 melanoma = test system: SK-MEL-5 melanoma
SNB-19 CNS = test system: SNB-19 CNS
DLD-1 colon = test system: DLD-1 colon
SF-268 CNS = test system: SF-268 CNS
CAKI-1 renal = test system: CAKI-1 renal
P388 leukemia = test system: P388 leukemia
NCI-H23 lung = test system: NCI-H23 lung
ACHN renal = test system: ACHN renal
MALME-3M melanoma = test system: MALME-3M melanoma
SK-MEL-2 melanoma = test system: SK-MEL-2 melanoma
HCT-15 colon = test system: HCT-15 colon
HOP-92 NSCLC = test system: HOP-92 NSCLC
UACC-62 melanoma = test system: UACC-62 melanoma
P388/ADR leukemia = test system: P388/ADR leukemia
SNB-78 CNS = test system: SNB-78 CNS
SNB-75 CNS = test system: SNB-75 CNS
M19-MEL melanoma = test system: M19-MEL melanoma
HOP-62 NSCLC = test system: HOP-62 NSCLC
COLO 205 colon = test system: COLO 205 colon
K-562 leukemia = test system: K-562 leukemia
LXFL 529 NSCLC = test system: LXFL 529 NSCLC
KM20L2 colon = test system: KM20L2 colon
OVCAR-5 ovarian = test system: OVCAR-5 ovarian
MOLT-4 leukemia = test system: MOLT-4 leukemia
SF-295 CNS = test system: SF-295 CNS
A549 NSCLC = test system: A549 NSCLC
HS 578T breast = test system: HS 578T breast
PC-3 prostate = test system: PC-3 prostate
MDA-MB-231 breast = test system: MDA-MB-231 breast
BT-549 breast = test system: BT-549 breast
MDA-MB-435 = test system: MDA-MB-435
MDA-N = test system: MDA-N
DU-145 prostate = test system: DU-145 prostate
T-47D breast = test system: T-47D breast
RXF-631 renal = test system: RXF-631 renal

## O=C(O)/C=C/C(=O)N1C/C(=C\c2ccccc2)C(=O)/C(=C/c2ccccc2)C1
MCF7 breast
  TGI: 18.3 µM
OVCAR-3 ovarian
  TGI: 15.6 µM
M14 melanoma
  TGI: 11.9 µM
SN12K1 renal
  TGI: 3.57 µM
UO-31 renal
  TGI: 24.9 µM
SR leukemia
  TGI: 41.6 µM
HCT-116 colon
  TGI: 3.48 µM
SK-MEL-28 melanoma
  TGI: 15.9 µM
OVCAR-4 ovarian
  TGI: 16.4 µM
SF-539 CNS
  TGI: 26.7 µM
NCI-H226 lung
  TGI: 31.3 µM
DMS 273 small cell lung
  TGI: 20 µM
RXF 393 renal
  TGI: 17.5 µM
CCRF-CEM leukemia
  TGI: 7.18 µM
HL-60(TB) leukemia
  TGI: 26.6 µM
LOX IMVI melanoma
  TGI: 10.5 µM
DMS 114 small cell lung
  TGI: 8.78 µM
NCI-H522 lung
  TGI: 4.94 µM
IGROV1 ovarian
  TGI: 31.9 µM
EKVX NSCLC
  TGI: 44.3 µM
OVCAR-8 ovarian
  TGI: 11.7 µM
HCC-2998 colon
  TGI: 13.1 µM
A498 renal
  TGI: 34.5 µM
UACC-257 melanoma
  TGI: 15.8 µM
RPMI-8226 leukemia
  TGI: 6.22 µM
HOP-18 NSCLC
  TGI: 26.3 µM
TK-10 renal
  TGI: 22.8 µM
SK-OV-3 ovarian
  TGI: 42.7 µM
786-0 renal
  TGI: 10.6 µM
SN12C renal
  TGI: 15.5 µM
U251 CNS
  TGI: 3.79 µM
NCI/ADR-RES ovarian
  TGI: 61.7 µM
HT29 colon
  TGI: 21.1 µM
NCI-H460 lung
  TGI: 30.8 µM
KM12 colon
  TGI: 6.07 µM
XF 498 CNS
  TGI: 15.8 µM
SW-620 colon
  TGI: 6.09 µM
SK-MEL-5 melanoma
  TGI: 19 µM
SNB-19 CNS
  TGI: 23.6 µM
DLD-1 colon
  TGI: 12.2 µM
SF-268 CNS
  TGI: 16.8 µM
CAKI-1 renal
  TGI: 31.1 µM
P388 leukemia
  TGI: 41.6 µM
NCI-H23 lung
  TGI: 23.9 µM
ACHN renal
  TGI: 20.9 µM
MALME-3M melanoma
  TGI: 12.3 µM
SK-MEL-2 melanoma
  TGI: 17.2 µM
HCT-15 colon
  TGI: 20.6 µM
HOP-92 NSCLC
  TGI: 37.9 µM
UACC-62 melanoma
  TGI: 8.7 µM
P388/ADR leukemia
  TGI: > 70.7 µM
SNB-78 CNS
  TGI: 24.2 µM
SNB-75 CNS
  TGI: 20.6 µM
M19-MEL melanoma
  TGI: 9.41 µM
HOP-62 NSCLC
  TGI: 41.7 µM
COLO 205 colon
  TGI: 24.3 µM
K-562 leukemia
  TGI: 7.86 µM
LXFL 529 NSCLC
  TGI: 3.72 µM
KM20L2 colon
  TGI: 17.6 µM
OVCAR-5 ovarian
  TGI: 31.8 µM
MOLT-4 leukemia
  TGI: 9.26 µM
SF-295 CNS
  TGI: 11.8 µM
A549 NSCLC
  TGI: 52 µM

## CCCCCC(O)C1C(=O)OC(C)C(O)/C=C/C=C/C=C/C=C/C=C(\C)C(O)C(O)C(O)CC(O)CC(O)CC(O)CC(O)CC1O (centres undefined)
HS 578T breast
  TGI: > 100 µM
M14 melanoma
  TGI: > 100 µM
SN12K1 renal
  TGI: 2.97 µM
UO-31 renal
  TGI: 3.27 µM
SR leukemia
  TGI: > 100 µM
PC-3 prostate
  TGI: > 100 µM
MDA-MB-231 breast
  TGI: > 100 µM
OVCAR-4 ovarian
  TGI: 3.25 µM
BT-549 breast
  TGI: > 100 µM
DMS 273 small cell lung
  TGI: 2.84 µM
RXF 393 renal
  TGI: 1.89 µM
HL-60(TB) leukemia
  TGI: > 100 µM
DMS 114 small cell lung
  TGI: 2.92 µM
NCI-H522 lung
  TGI: 3.3 µM
HCC-2998 colon
  TGI: 3.26 µM
MDA-MB-435
  TGI: > 100 µM
HOP-18 NSCLC
  TGI: 4.61 µM
TK-10 renal
  TGI: > 100 µM
786-0 renal
  TGI: > 100 µM
NCI/ADR-RES ovarian
  TGI: 3.73 µM
NCI-H460 lung
  TGI: 3.44 µM
KM12 colon
  GI50: 11.8 µM and 1.77 µM
XF 498 CNS
  TGI: 2.84 µM
DLD-1 colon
  TGI: 3.32 µM
P388 leukemia
  TGI: 2.42 µM
MDA-N
  TGI: > 100 µM
ACHN renal
  TGI: > 100 µM
DU-145 prostate
  TGI: > 100 µM
HCT-15 colon
  TGI: 5.93 µM
T-47D breast
  TGI: > 100 µM
HOP-92 NSCLC
  TGI: 3.21 µM
P388/ADR leukemia
  TGI: 3.8 µM
SNB-78 CNS
  TGI: 4.69 µM
M19-MEL melanoma
  TGI: 2.59 µM
KM20L2 colon
  TGI: 5.64 µM

## CN1CC(=O)N(C)c2nc[nH]c2C1=O
OVCAR-3 ovarian
  TGI: > 100 µM
M14 melanoma
  TGI: > 100 µM
UO-31 renal
  TGI: > 100 µM
SR leukemia
  TGI: > 100 µM
SK-MEL-28 melanoma
  TGI: > 100 µM
OVCAR-4 ovarian
  TGI: > 100 µM
SF-539 CNS
  TGI: > 100 µM
NCI-H226 lung
  TGI: > 100 µM
DMS 273 small cell lung
  TGI: > 100 µM
RXF 393 renal
  TGI: > 100 µM
CCRF-CEM leukemia
  TGI: > 100 µM
HL-60(TB) leukemia
  TGI: > 100 µM
LOX IMVI melanoma
  TGI: > 100 µM
DMS 114 small cell lung
  TGI: > 100 µM
IGROV1 ovarian
  TGI: > 100 µM
EKVX NSCLC
  TGI: > 100 µM
OVCAR-8 ovarian
  TGI: > 100 µM
HCC-2998 colon
  TGI: > 100 µM
A498 renal
  TGI: > 100 µM
RPMI-8226 leukemia
  TGI: > 100 µM
HOP-18 NSCLC
  TGI: > 100 µM
TK-10 renal
  TGI: > 100 µM
SK-OV-3 ovarian
  TGI: > 100 µM
786-0 renal
  TGI: > 100 µM
SN12C renal
  TGI: > 100 µM
U251 CNS
  TGI: > 100 µM
HT29 colon
  TGI: > 100 µM
NCI-H460 lung
  TGI: > 100 µM
KM12 colon
  TGI: > 100 µM
XF 498 CNS
  TGI: > 100 µM
SW-620 colon
  TGI: > 100 µM
SK-MEL-5 melanoma
  TGI: > 100 µM
SNB-19 CNS
  TGI: > 100 µM
DLD-1 colon
  TGI: > 100 µM
SF-268 CNS
  TGI: > 100 µM
NCI-H23 lung
  TGI: > 100 µM
ACHN renal
  TGI: > 100 µM
MALME-3M melanoma
  TGI: > 100 µM
HCT-15 colon
  TGI: > 100 µM
RXF-631 renal
  TGI: > 100 µM
UACC-62 melanoma
  TGI: > 100 µM
SNB-78 CNS
  TGI: > 100 µM
SNB-75 CNS
  TGI: > 100 µM
M19-MEL melanoma
  TGI: > 100 µM
COLO 205 colon
  TGI: > 100 µM
K-562 leukemia
  TGI: > 100 µM
LXFL 529 NSCLC
  TGI: > 100 µM
OVCAR-5 ovarian
  TGI: > 100 µM
MOLT-4 leukemia
  TGI: > 100 µM
SF-295 CNS
  TGI: > 100 µM
A549 NSCLC
  TGI: > 100 µM
